Measured values taken from the NIST ThermoML archive (doi:10.1016/j.jct.2015.07.029).

Experiment: mn = molality of the nth substance listed, in mol/kg
Conditions: 101.3 kPa, Liquid, Alternating current cell with electrodes

O=C(O)c1ccc(O)c(O)c1 [3,4-dihydroxybenzoic acid] + O
electrical conductivity [S/m]
Conditions	m1 = 0.001	m1 = 0.002	m1 = 0.004	m1 = 0.006	m1 = 0.008	m1 = 0.01
288.15 K	0.0048	0.007	0.0102	0.0126	0.0146	0.0164
291.15 K	0.0051	0.0074	0.0107	0.0132	0.0154	0.0173
294.15 K	0.0054	0.0078	0.0113	0.014	0.0162	0.0182
298.15 K	0.0058	0.0084	0.0121	0.015	0.0174	0.0196
